# Measured values as given in patent US20240358693A1, “METHODS OF TREATING PAIN” (Aisa Pharma, Inc., priority 2023, published 2024).
# System: participants with SSc-RP
# Assay: Scleroderma Health Assessment Questionnaire (SHAQ): disability indices and visual analog scales
# Assay type: in vivo, human
# Excerpt: The standard, validated, patient reported outcome measures tool for SSc patients, the Scleroderma Health Assessment Questionnaire (SHAQ), will be used to assess the participant qualify of life. Details are attached in the Appendix. The participant quality of life will be scored, and a disability index calculated for each questionnaire completed by the patient at Screening and each in-clinic visit. The absolute change in participant quality of life from baseline to the end of each dosing period will be calculated similar to frequency data as before.
# The SHAQ includes a Raynaud's VAS, which will be reported at screening and each in-clinic visit. The absolute change in Raynaud-VAS, assessed by the participants response to the SHAQ question ‘In the past 7 days, how much have your Raynaud's interfered with your daily activities?’ at baseline and the end of each dosing period will be calculated similar to frequency data as before.
# The SHAQ is used to calculate a Disability Index to assess the participant qualify of life. The eight categories assessed by the Disability Index are 1) dressing and grooming, 2) arising, 3) eating, 4) walking, 5) hygiene, 6) reach, 7) grip, and 8) common daily activities. For each of these categories, patients report the amount of difficulty they have in performing two or three specific activities.
# There are four possible responses for the Disability Index questions: • Without any difficulty=0 • With some difficulty=1 • With much difficulty=2 • Unable to do=3. • The highest score reported by the patient for any component question of the eight categories determines the score for that category. • If a component question is left blank or the response is too ambiguous to assign a score, then the score for that category is determined by the remaining completed question(s). • If all component questions are blank or if more than one answer is given, then follow up with the respondent is required. • If the respondent's mark is between the response columns, then move it to the closest one. If it's directly between the two, move it to the higher one.
# Each of the disability items on the SHAQ has a companion aids/devices variable that is used to record what type(s) of assistance, if any, the participant uses for his/her usual activities. These variables (see below) are coded as follows: • 0=No assistance is needed. • 1=A special device is used by the patient in his/her usual activities. • 2=The patient usually needs help from another person. • 3=The patient usually needs BOTH a special device AND help from another person.
# The scoring variables and scoring rules permit the computation of two disability indices, the Standard Disability Index and the Alternative Disability Index.
# This question results in a new set of category scores that are computed by adjusting the score for each category, if necessary, based on the patient's use of an aid or device or assistance for that category. If either devices and/or help from another person are checked for a category, the score is set to “2”, unless the score is already “3” (i.e., scores of “0” or “1” are increased to “2”). For example, if the highest score for the dressing category is “1”, and the patient says they use a device for dressing, the computed category score would be “2”. The sum of the computed categories scores is then calculated and divided by the number of categories answered. This gives a score in the 0 to 3 range.
# The aid and device variables are not used to calculate the alternative disability index; it is calculated by adding the scores for each of the categories and dividing by the number of categories answered. This gives a score in the 0 to 3 range.
# The standard, validated, patient reported outcome measures tool for SSc patients, the SHAQ, was collected at the time points specified in the study schedules (FIG. 2 and FIGS. 4A and 4B) to assess the participant's quality of life. The SHAQ included a Raynaud's VAS that will also be reported separately.
# [1] = Pooled Cilnidipine 10 mg and Cilnidipine 10 mg + Tadalafil 5 mg (N = 9), sensitivity analysis, Modified ITT, Part A
# [2] = Pooled Cilnidipine 20 mg and Cilnidipine 20 mg + Tadalafil 5 mg (N = 7), sensitivity analysis, Modified ITT, Part A
# [3] = Pooled Cilnidipine (10 mg or 20 mg) (N = 7)
smiles,measurement,setting,value
"COCCOC(=O)C1=C(C)NC(C)=C(C(=O)OC/C=C/c2ccccc2)C1c1cccc([N+](=O)[O-])c1 (stereo not shown) [Cilnidipine, cilnidipine]","SHAQ VAS Raynaud's: Percent Change from Baseline, Mean",[1],−9.97%
same,"SHAQ VAS Raynaud's: Percent Change from Baseline, Median",[1],−4.39%
same,"SHAQ Standard Disability Index: Baseline, Mean",[2],0.554
same,"SHAQ Standard Disability Index: Baseline, Median",[2],0.375
same,"SHAQ Standard Disability Index: Change from Baseline, Mean",[2],−0.092
same,"SHAQ Standard Disability Index: Change from Baseline, Median",[2],0.000
same,"SHAQ Standard Disability Index: Day 12, Mean",[2],0.462
same,"SHAQ Standard Disability Index: Day 12, Median",[2],0.250
same,"SHAQ Standard Disability Index: Percent Change from Baseline, Mean",[2],−5.99%
same,"SHAQ Standard Disability Index: Percent Change from Baseline, Median",[2],−33.33%
same,"SHAQ VAS Breathing Problems: Baseline, Mean",[2],1.071
same,"SHAQ VAS Breathing Problems: Baseline, Median",[2],0.800
same,"SHAQ VAS Breathing Problems: Change from Baseline, Mean",[2],0.171
same,"SHAQ VAS Breathing Problems: Change from Baseline, Median",[2],0.000
same,"SHAQ VAS Breathing Problems: Day 12, Mean",[2],1.243
same,"SHAQ VAS Breathing Problems: Day 12, Median",[2],0.400
same,"SHAQ VAS Breathing Problems: Percent Change from Baseline, Mean",[2],103.99%
same,"SHAQ VAS Breathing Problems: Percent Change from Baseline, Median",[2],24.48%
same,"SHAQ VAS Finger Ulcers: Baseline, Mean",[2],1.986
same,"SHAQ VAS Finger Ulcers: Baseline, Median",[2],0.100
same,"SHAQ VAS Finger Ulcers: Change from Baseline, Mean",[2],−0.950
same,"SHAQ VAS Finger Ulcers: Change from Baseline, Median",[2],−0.050
same,"SHAQ VAS Finger Ulcers: Day 12, Mean",[2],1.367
same,"SHAQ VAS Finger Ulcers: Day 12, Median",[2],0.350
same,"SHAQ VAS Finger Ulcers: Percent Change from Baseline, Mean",[2],−15.69%
same,"SHAQ VAS Finger Ulcers: Percent Change from Baseline, Median",[2],−48.04%
same,"SHAQ VAS Intestinal Problems: Baseline, Mean",[2],0.886
same,"SHAQ VAS Intestinal Problems: Baseline, Median",[2],1.000
same,"SHAQ VAS Intestinal Problems: Change from Baseline, Mean",[2],0.271
same,"SHAQ VAS Intestinal Problems: Change from Baseline, Median",[2],0.000
same,"SHAQ VAS Intestinal Problems: Day 12, Mean",[2],1.157
same,"SHAQ VAS Intestinal Problems: Day 12, Median",[2],0.200
same,"SHAQ VAS Intestinal Problems: Percent Change from Baseline, Mean",[2],12.47%
same,"SHAQ VAS Intestinal Problems: Percent Change from Baseline, Median",[2],30.00%
same,"SHAQ VAS Overall Disease Severity: Baseline, Mean",[2],3.200
same,"SHAQ VAS Overall Disease Severity: Baseline, Median",[2],2.900
same,"SHAQ VAS Overall Disease Severity: Change from Baseline, Mean",[2],−1.186
same,"SHAQ VAS Overall Disease Severity: Change from Baseline, Median",[2],−1.500
same,"SHAQ VAS Overall Disease Severity: Day 12, Mean",[2],2.014
same,"SHAQ VAS Overall Disease Severity: Day 12, Median",[2],1.200
same,"SHAQ VAS Overall Disease Severity: Percent Change from Baseline, Mean",[2],−44.99%
same,"SHAQ VAS Overall Disease Severity: Percent Change from Baseline, Median",[2],−44.74%
same,"SHAQ VAS Pain: Baseline, Mean",[2],2.667
same,"SHAQ VAS Pain: Baseline, Median",[2],2.550
same,"SHAQ VAS Pain: Change from Baseline, Mean",[2],−0.700
same,"SHAQ VAS Pain: Change from Baseline, Median",[2],−0.650
same,"SHAQ VAS Pain: Day 12, Mean",[2],2.000
same,"SHAQ VAS Pain: Day 12, Median",[2],2.100
same,"SHAQ VAS Pain: Percent Change from Baseline, Mean",[2],−33.40%
same,"SHAQ VAS Pain: Percent Change from Baseline, Median",[2],−51.06%
same,"SHAQ VAS Raynaud's: Baseline, Mean",[2],2.314
same,"SHAQ VAS Raynaud's: Baseline, Median",[2],0.900
same,"SHAQ VAS Raynaud's: Change from Baseline, Mean",[2],−1.014
same,"SHAQ VAS Raynaud's: Change from Baseline, Median",[2],−0.300
same,"SHAQ VAS Raynaud's: Day 12, Mean",[2],1.300
same,"SHAQ VAS Raynaud's: Day 12, Median",[2],0.600
same,"SHAQ VAS Raynaud's: Percent Change from Baseline, Mean",[2],−34.71%
same,"SHAQ VAS Raynaud's: Percent Change from Baseline, Median",[2],−40.67%
same,"SHAQ patient reported disease severity, Change from Baseline, Mean",[3],−1.214
same,"SHAQ patient reported disease severity, Change from Baseline, Median",[3],−1.500
same,"SHAQ patient reported disease severity, In-Clinic Visit (Day 12), Mean",[3],1.486
